One series deals with human hair follicles. The experiment in a line: Human hair follicle organ culture (hair extension, retention of hair bulb morphology). The series is classed as cell-based. The following applies: for extension of hair: 7 days. The protocol:
Three antibiotics of penicillin, streptomycin and fungizone were added to the Williams E medium (Gibco), and the medium to which 10 ng/ml hydrocortisone, 10 μg/ml insulin, 10 ng/ml sodium pentaselenate and 10 μg/ml transferrin were further added was made the insulin-containing medium, and the medium to which they were not added was made the basal medium, and were used in a human hair follicle organ culture.
(§1) Using a microtome under a stereoscopic microscope, hair follicles in the growth phase were isolated from a human scalp. The isolated hair follicles were washed in the basal medium followed by the measurement of length, and then immersed in the insulin-containing medium (a 24-well microplate was used; 1 ml per well), and was cultured overnight at 37° C. in an atmospheric condition containing 5% CO2. After measuring the length again, hair follicles of which length extension was 0.25 mm or longer and of which morphology in the growth phase was retained were selected, and were divided in groups of 10 to 12 pieces so that the length extension may become equal. For each group, the medium was changed to one containing test substances, and the culturing was continued under the above gas phase condition.
The extension of hair follicles was determined over time by inserting a micrometer into the eyepiece of an inverted microscope. Photographs of the whole hair follicles and hair bulbs were taken by a camera connected to the inverted microscope.
On the second day of culturing, the medium was changed to one in which TGF-β2 was added to a final concentration of 50 ng/ml, and the culturing was continued for five days while observing the extension of hair follicles and morphological changes. […] Thus, it was estimated that TGF-β2 has an effect of promoting the regression phase.
The method was performed in accordance with the human hair follicle organ culture method. On the second day of culturing, the medium was changed to one in which anti-TGF-β antibody (manufactured by Genzyme) having the effect of neutralizing TGF-β or the control mouse IgG were added to a final concentration of 20 μg/ml or 100 μg/ml, and culturing was continued for 4-7 days while observing the extension and morphological changes of hair follicles.
The medium was changed to one in which fetuin (final concentration: 1, 10, 50 μM) or the control bovine serum albumin (final concentration: 50 μM) was added to the basal medium, and culturing was continued for a further 7 days while observing the extension and morphological changes of hair follicles.
as §1, with “that” for “that the”
The extension of hair follicles was determined with time by inserting a micrometer into the eyepiece of an inverted microscope. Photographs of the whole hair follicles and hair bulbs were taken by a camera connected to the inverted microscope.
Carbobenzoxy-valyl-alanyl-β-methyl-aspar-1-yl-fluoromethane (z-VAD-fmk) is known to inhibit almost all caspases. […] The medium was changed to one in which z-VAD-fmk (final concentration: 1, 10, 100 μM) was dissolved in DMSO or the control DMSO was added to the basal medium, and culturing was continued for further 7 days while observing the extension and morphological changes of hair follicles. […]

Another series addresses T1, TGF-β2 (Homo sapiens, UniProt P61812).
T1 construct: host or cells: added to the culture medium of human dermal papilla cells
T1 sequence (P61812 303-414 limits assumed): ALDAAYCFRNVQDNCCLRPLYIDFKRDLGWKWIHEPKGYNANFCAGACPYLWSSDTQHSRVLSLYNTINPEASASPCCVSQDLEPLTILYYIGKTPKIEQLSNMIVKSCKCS
The experiment in a line: Determination of PAI-1 in human dermal papilla cells cultured with TGF-β2. The series is classed as cell-based. The method, then:
The inhibition of effect of TGF-β2 can be determined as follows. Utilizing the fact that TGF-β2 induces the production of PAI-1, cells (e.g., dermal papilla cells) are cultured in the coexistence of TGF-β2 and the test substance, PAI-1 in the medium is determined, and to determine whether or not PAI-1 was inhibited as compared to the control.
The medium in which 10% bovine fetal serum was added to the DMEM medium to which three antibiotics of penicillin, streptomycin and fungizone had been added was used, and human dermal papilla cells were cultured in a 96-well plate (about 7,500 cells per well). First, dose dependency on TGF-β2 of the increased expression of PAI-1 was examined. At a suitable cell density, the medium was changed to ones containing various concentrations of TGF-β2, and was further cultured for 24 hours. Ten μl of the medium was taken out, and quantitated using a commercially available PAI-1 determination kit (TintElize PAI-1: biopool).
Then, the present inventors investigated, as described below, whether or not TGF-β2 has the effect of inhibiting the enhanced expression of PAI-1. Phyllodulcin was dissolved in DMSO at concentrations of 0.05-50 μg/ml and used. […] At the end of culturing, the survival of cells was also determined by the Alamar Blue method.

The subject of series [1] is human dermal papilla cells. The experiment in a line: Cell survival by the Alamar Blue method. The series is classed as cell-based. Particulars: after 24 hours culture; 100% in the case of no addition. The protocol:
Then, the present inventors investigated, as described below, whether or not TGF-β2 has the effect of inhibiting the enhanced expression of PAI-1. Phyllodulcin was dissolved in DMSO at concentrations of 0.05-50 μg/ml and used. After culturing for 24 hours in a medium containing 1 ng/ml TGF-β2, 10 μl of the medium was used to determine the amount of PAI-1. At the end of culturing, the survival of cells was also determined by the Alamar Blue method.
This was performed as described below. Thus, after washing twice in a fresh medium, the medium was changed to one containing 1/10 amount of Alamar Blue (Alamar Bioscience), and was incubated at 37° C. (5% CO2) for four hours. After incubation, absorbance at 595 nm and 570 nm was measured by a microplate reader in order to calculate the Alamar Blue reduction rate for each well, which was divided by the Alamar Blue reduction rate for the negative control in which no phyllodulcin samples were added, and the survival of the cells were calculated.

In another series the test system is isolated human hair. The experiment in a line: Extension of isolated human hair. Particulars: phyllodulcin added to isolated human hair, vs control. The series is classed as cell-based. The protocol:
The extension of hair when phyllodulcin was added to the isolated human hair was investigated. The result is as shown in a photograph in FIG. 20.

For a further series, the system named is precursor caspase-3. The experiment in a line: Detection of precursor and activated caspase-3 in Pam212 cells cultured with TNF α and CHX. The series is classed as cell-based, mouse. Particulars: TNF α and CHX added, incubated six hours, antibody detection. The source says: The precursor caspase-3 was detected in almost all cells, whereas activated caspase-3 was not detected.

The values below come from patent US20070172444A1, “Hair tonics and method of screening the same” (Shiseido Company, Ltd., priority 2000, published 2007).

Residues, ends and D or L forms follow the SMILES beside them. *: point of attachment. Cbz = O=C(OCc1ccccc1)*; CH2F = FC*

In the case of `COc1ccc([C@H]2Cc3cccc(O)c3C(=O)O2)cc1O` [phyllodulcin], the hair extension entry in the series with human hair follicles (0.6 μg/ml, eighth day of culturing, vs solvent control) is reported as “significantly promoted”. Further, the “amount of PAI-1” value at TGF-β2 (1 ng/ml TGF-β2, 24 hours, 100 in the case of no addition, phyllodulcin 0.05-50 μg/ml) is listed as 18. For the same compound, the “Alamar Blue reduction rate (%)” value in series [1] is listed as 95%. The extension of hair result in the series on isolated human hair is recorded as “the hair is extended as compared to the control”.
With fetuin, the extension of hair entry in the series with human hair follicles (fetuin 1, 10, 50 μM, vs control bovine serum albumin 50 μM) is given as “significantly extended hair”.
For the compound `COC(=O)CC(NC(=O)C(C)NC(=O)C(NC(=O)OCc1ccccc1)C(C)C)C(=O)CF` (stereo not drawn) [z-VAD-fmk, Carbobenzoxy-valyl-alanyl-β-methyl-aspar-1-yl-fluoromethane] (Cbz-Val-Ala-Asp(OMe)-CH2F; configuration not given here), the “Ratio of hair follicles in which the morphology of the hair bulb portions was retained” value in the series with human hair follicles (Experiment 2 (day 4), 10 μM, control 12.5%) was 37.5% (3/8); in the series with human hair follicles (Experiment 2 (day 6) as printed, 20 μM, control 20%), 60% (6/10). The extension of hair result with human hair follicles (z-VAD-fmk 1, 10, 100 μM, vs control DMSO) is recorded as “significantly extended hair”. The “activation of the precursor caspase-3” value with precursor caspase-3 was “completely inhibit the activation of the precursor caspase-3”.
On to TGF-β2: transforming growth factor β2, for which the “regression phase-like morphological changes” value with human hair follicles (TGF-β2 50 ng/ml, sixth day of culturing, vs non-added control) is “regression phase-like morphological changes were promoted”. Also, the “expression of PAI-1” value with TGF-β2 (various concentrations of TGF-β2, 24 hours) was “an increase in PAI-1 in a dose dependent manner”.
